Data published in PubChem BioAssay (NCI).
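Following 48 hours of exposure in 96-well plates, responses at five concentrations were used to interpolate endpoints linearly. The concentration for 50% growth inhibition is given as GI50. The concentration for full growth arrest is given as TGI.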

Key:
Experiment in all cases: DTP human tumour cell line panel, 48 h
SK-OV-3 ovarian = test system: SK-OV-3 ovarian
NCI/ADR-RES ovarian = test system: NCI/ADR-RES ovarian
HS 578T breast = test system: HS 578T breast
SNB-75 CNS = test system: SNB-75 CNS
SF-539 CNS = test system: SF-539 CNS
SF-295 CNS = test system: SF-295 CNS
HCC-2998 colon = test system: HCC-2998 colon
UO-31 renal = test system: UO-31 renal
SW-620 colon = test system: SW-620 colon
CCRF-CEM leukemia = test system: CCRF-CEM leukemia
A498 renal = test system: A498 renal
TK-10 renal = test system: TK-10 renal
HT29 colon = test system: HT29 colon
SF-268 CNS = test system: SF-268 CNS
PC-3 prostate = test system: PC-3 prostate
SK-MEL-5 melanoma = test system: SK-MEL-5 melanoma
RPMI-8226 leukemia = test system: RPMI-8226 leukemia
SNB-19 CNS = test system: SNB-19 CNS
HOP-92 NSCLC = test system: HOP-92 NSCLC
UACC-62 melanoma = test system: UACC-62 melanoma
NCI-H226 lung = test system: NCI-H226 lung
DU-145 prostate = test system: DU-145 prostate
HL-60(TB) leukemia = test system: HL-60(TB) leukemia
SK-MEL-2 melanoma = test system: SK-MEL-2 melanoma
KM12 colon = test system: KM12 colon
COLO 205 colon = test system: COLO 205 colon
OVCAR-3 ovarian = test system: OVCAR-3 ovarian
LOX IMVI melanoma = test system: LOX IMVI melanoma
NCI-H460 lung = test system: NCI-H460 lung
SK-MEL-28 melanoma = test system: SK-MEL-28 melanoma
OVCAR-5 ovarian = test system: OVCAR-5 ovarian
NCI-H522 lung = test system: NCI-H522 lung
HCT-116 colon = test system: HCT-116 colon
786-0 renal = test system: 786-0 renal
K-562 leukemia = test system: K-562 leukemia
UACC-257 melanoma = test system: UACC-257 melanoma
CAKI-1 renal = test system: CAKI-1 renal
SN12C renal = test system: SN12C renal
MDA-MB-435 = test system: MDA-MB-435
MDA-MB-231 breast = test system: MDA-MB-231 breast
RXF 393 renal = test system: RXF 393 renal
OVCAR-8 ovarian = test system: OVCAR-8 ovarian
HOP-62 NSCLC = test system: HOP-62 NSCLC
EKVX NSCLC = test system: EKVX NSCLC
MALME-3M melanoma = test system: MALME-3M melanoma
M14 melanoma = test system: M14 melanoma
BT-549 breast = test system: BT-549 breast
ACHN renal = test system: ACHN renal
A549 NSCLC = test system: A549 NSCLC
SR leukemia = test system: SR leukemia
MOLT-4 leukemia = test system: MOLT-4 leukemia
MCF7 breast = test system: MCF7 breast
HCT-15 colon = test system: HCT-15 colon
U251 CNS = test system: U251 CNS
NCI-H23 lung = test system: NCI-H23 lung
T-47D breast = test system: T-47D breast
OVCAR-4 ovarian = test system: OVCAR-4 ovarian
IGROV1 ovarian = test system: IGROV1 ovarian

## CCN(CC)CCC(CNc1c(C)cnc2cc(Cl)ccc12)c1ccc(Cl)c(Cl)c1 (stereo not given)
SK-OV-3 ovarian
  GI50: 14.4 µM
  TGI: 28 µM
NCI/ADR-RES ovarian
  GI50: 6.33 µM
  TGI: 21.3 µM
HS 578T breast
  GI50: 4.26 µM
  TGI: 23.1 µM
SNB-75 CNS
  GI50: 3.9 µM
  TGI: 18.7 µM
SF-539 CNS
  GI50: 1.77 µM
  TGI: 3.52 µM
SF-295 CNS
  GI50: 1.67 µM
  TGI: 3.75 µM
HCC-2998 colon
  GI50: 1.77 µM
  TGI: 3.36 µM
UO-31 renal
  GI50: 2.59 µM
  TGI: 13.9 µM
SW-620 colon
  GI50: 2.14 µM
  TGI: 7 µM
CCRF-CEM leukemia
  GI50: 2.81 µM
  TGI: 9.31 µM
A498 renal
  GI50: 9.4 µM
  TGI: 24.8 µM
TK-10 renal
  GI50: 5.03 µM
  TGI: 17.1 µM
HT29 colon
  GI50: 1.14 µM
  TGI: 10.1 µM
SF-268 CNS
  GI50: 8.3 µM
  TGI: 23.8 µM
PC-3 prostate
  GI50: 4.1 µM
  TGI: 16.2 µM
SK-MEL-5 melanoma
  GI50: 1.82 µM
  TGI: 3.26 µM
RPMI-8226 leukemia
  GI50: 2.15 µM
  TGI: 6.49 µM
SNB-19 CNS
  GI50: 4.79 µM
  TGI: 18 µM
HOP-92 NSCLC
  GI50: 1.96 µM
  TGI: 8.03 µM
UACC-62 melanoma
  GI50: 2.18 µM
  TGI: 4.77 µM
NCI-H226 lung
  GI50: 13.5 µM
  TGI: 30.8 µM
DU-145 prostate
  GI50: 9.2 µM
  TGI: 22 µM
HL-60(TB) leukemia
  GI50: 2.13 µM
  TGI: 5.12 µM
SK-MEL-2 melanoma
  GI50: 2.67 µM
  TGI: 7.73 µM
KM12 colon
  GI50: 4.34 µM
  TGI: 17.7 µM
COLO 205 colon
  GI50: 1.55 µM
  TGI: 3.24 µM
OVCAR-3 ovarian
  GI50: 6.81 µM
  TGI: 21.1 µM
LOX IMVI melanoma
  GI50: 1.59 µM
  TGI: 3.14 µM
NCI-H460 lung
  GI50: 2.63 µM
  TGI: 10.7 µM
SK-MEL-28 melanoma
  GI50: 1.97 µM
  TGI: 3.83 µM
OVCAR-5 ovarian
  GI50: 4.62 µM
  TGI: 18.9 µM
NCI-H522 lung
  GI50: 3.78 µM
  TGI: 16 µM
HCT-116 colon
  GI50: 1.36 µM
  TGI: 8.86 µM
786-0 renal
  GI50: 2.37 µM
  TGI: 5.74 µM
K-562 leukemia
  GI50: 1.2 µM
  TGI: 3.51 µM
UACC-257 melanoma
  GI50: 2.08 µM
  TGI: 3.93 µM
CAKI-1 renal
  GI50: 2.59 µM
  TGI: 11.5 µM
SN12C renal
  GI50: 7.67 µM
  TGI: 23.7 µM
MDA-MB-435
  GI50: 1.77 µM
  TGI: 3.4 µM
MDA-MB-231 breast
  GI50: 2.43 µM
  TGI: 7.06 µM
RXF 393 renal
  GI50: 2.86 µM
  TGI: 11.4 µM
OVCAR-8 ovarian
  GI50: 9.89 µM
  TGI: 24.9 µM
HOP-62 NSCLC
  GI50: 4.69 µM
  TGI: 17.6 µM
EKVX NSCLC
  GI50: 3.21 µM
  TGI: 14.2 µM
MALME-3M melanoma
  GI50: 1.88 µM
  TGI: 3.5 µM
M14 melanoma
  GI50: 1.82 µM
  TGI: 3.63 µM
BT-549 breast
  GI50: 8.2 µM
  TGI: 21.3 µM
ACHN renal
  GI50: 4.51 µM
  TGI: 17.5 µM
A549 NSCLC
  GI50: 8.21 µM
  TGI: 22 µM
SR leukemia
  GI50: 1.93 µM
  TGI: 5.44 µM
MOLT-4 leukemia
  GI50: 2.88 µM
  TGI: 10.1 µM
MCF7 breast
  GI50: 1.79 µM
  TGI: 4.15 µM
HCT-15 colon
  GI50: 2.23 µM
  TGI: 10.8 µM
U251 CNS
  GI50: 2.27 µM
  TGI: 5.43 µM
NCI-H23 lung
  GI50: 5.62 µM
  TGI: 20.6 µM
T-47D breast
  GI50: 2.22 µM
  TGI: 7.08 µM
OVCAR-4 ovarian
  GI50: 3.81 µM
  TGI: 19.2 µM
IGROV1 ovarian
  GI50: 2.26 µM
  TGI: 12.1 µM

## O=C(Oc1c(Cl)c(Cl)c(Cl)c(Cl)c1Cl)C1CCCN1C(=O)OCc1ccccc1 (stereo not given)
SK-OV-3 ovarian
  GI50: 3.15 µM
  TGI: 9.07 µM
NCI/ADR-RES ovarian
  GI50: 3.15 µM
  TGI: 11.2 µM
HS 578T breast
  GI50: 2.92 µM
  TGI: 10.4 µM
SNB-75 CNS
  GI50: 2.66 µM
  TGI: 10.2 µM
SF-539 CNS
  GI50: 2.63 µM
  TGI: 9.56 µM
SF-295 CNS
  GI50: 2.75 µM
  TGI: 8.47 µM
HCC-2998 colon
  GI50: 4.36 µM
  TGI: 14.9 µM
UO-31 renal
  GI50: 2.9 µM
  TGI: 12.3 µM
SW-620 colon
  GI50: 3.44 µM
  TGI: 14.4 µM
CCRF-CEM leukemia
  GI50: 3.01 µM
  TGI: 14.3 µM
A498 renal
  GI50: 1.99 µM
  TGI: 5.81 µM
TK-10 renal
  GI50: 3.13 µM
  TGI: 8.85 µM
HT29 colon
  GI50: 3.71 µM
  TGI: 12 µM
SF-268 CNS
  GI50: 4 µM
  TGI: 15.6 µM
PC-3 prostate
  GI50: 2.95 µM
  TGI: 11.6 µM
SK-MEL-5 melanoma
  GI50: 2.26 µM
  TGI: 5.74 µM
RPMI-8226 leukemia
  GI50: 2.45 µM
  TGI: 6.83 µM
SNB-19 CNS
  GI50: 3.23 µM
  TGI: 13.2 µM
HOP-92 NSCLC
  GI50: 1.99 µM
  TGI: 6.1 µM
UACC-62 melanoma
  GI50: 3.24 µM
  TGI: 12.6 µM
NCI-H226 lung
  GI50: 3.82 µM
  TGI: 21.7 µM
DU-145 prostate
  GI50: 4.49 µM
  TGI: 20 µM
HL-60(TB) leukemia
  GI50: 2.42 µM
  TGI: 6.09 µM
SK-MEL-2 melanoma
  GI50: 2.28 µM
  TGI: 4.49 µM
KM12 colon
  GI50: 3.62 µM
  TGI: 13 µM
COLO 205 colon
  GI50: 2.01 µM
  TGI: 3.88 µM
OVCAR-3 ovarian
  GI50: 3.27 µM
  TGI: 9.84 µM
LOX IMVI melanoma
  GI50: 2.85 µM
  TGI: 8.6 µM
NCI-H460 lung
  GI50: 3.29 µM
  TGI: 10.6 µM
SK-MEL-28 melanoma
  GI50: 7.45 µM
  TGI: 22.1 µM
OVCAR-5 ovarian
  GI50: 4.28 µM
  TGI: 17.1 µM
NCI-H522 lung
  GI50: 2.47 µM
  TGI: 6.84 µM
HCT-116 colon
  GI50: 3.43 µM
  TGI: 10.7 µM
786-0 renal
  GI50: 3.94 µM
  TGI: 14.2 µM
K-562 leukemia
  GI50: 3.43 µM
  TGI: 19.3 µM
UACC-257 melanoma
  GI50: 4.29 µM
  TGI: 17.7 µM
CAKI-1 renal
  GI50: 2.8 µM
  TGI: 8.52 µM
SN12C renal
  GI50: 3.24 µM
  TGI: 12.5 µM
MDA-MB-435
  GI50: 4.11 µM
  TGI: 16.6 µM
MDA-MB-231 breast
  GI50: 2.42 µM
  TGI: 6.6 µM
RXF 393 renal
  GI50: 3.94 µM
  TGI: 15.4 µM
OVCAR-8 ovarian
  GI50: 3.43 µM
  TGI: 15.9 µM
HOP-62 NSCLC
  GI50: 3.45 µM
  TGI: 14.9 µM
MALME-3M melanoma
  GI50: 3.62 µM
  TGI: 11.4 µM
M14 melanoma
  GI50: 4 µM
  TGI: 16.4 µM
BT-549 breast
  GI50: 3.75 µM
  TGI: 13.1 µM
ACHN renal
  GI50: 2.62 µM
  TGI: 8.09 µM
A549 NSCLC
  GI50: 3.97 µM
  TGI: 18.2 µM
SR leukemia
  GI50: 3.82 µM
  TGI: 15.7 µM
MOLT-4 leukemia
  GI50: 3.1 µM
  TGI: 9.07 µM
MCF7 breast
  GI50: 3.16 µM
  TGI: 11.9 µM
HCT-15 colon
  GI50: 3.08 µM
  TGI: 11.7 µM
U251 CNS
  GI50: 3.34 µM
  TGI: 12.6 µM
NCI-H23 lung
  GI50: 3.17 µM
  TGI: 10.1 µM
T-47D breast
  GI50: 2.79 µM
  TGI: 11.3 µM
OVCAR-4 ovarian
  GI50: 2.66 µM
  TGI: 10.6 µM
IGROV1 ovarian
  GI50: 4 µM
  TGI: 22 µM
